Assay results published in the supplement of paper PMC10307832.

What was measured:
Test in all cases: relative viability (nuclei count vs DMSO), 5 days (fraction); higher = more cells survive
[1] = compound: COc1cccc2cc(-c3nc([C@H]4CC[C@H](C(=O)O)CC4)n4ncnc(N)c34)[nH]c12 [OSI-027] + COc1cc2c(Oc3ccc(NC(=O)C4(C(=O)Nc5ccc(F)cc5)CC4)cc3F)ccnc2cc1OCCCN1CCOCC1 [Foretinib] (partner 0.25 µM)
In short: (§1)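 A single step with final 0.05% Triton X-100, 1% formaldehyde and 1 ug/ml Hoechst fixed the cells and stained nuclei 5 days after treatment. Lung cancer cell lines in 1536-well plates had been treated by pin tool the day after seeding with one drug alone or a fixed anchor-drug dose plus five library-drug doses (not always all listed) in √10 steps, and nuclei were counted on 4× images. Relative viability is the ratio of nuclei in treated wells to nuclei in vehicle wells, taken as the median of duplicate plates.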

[2] = compound: Cc1nc(NC(=O)N2CCC[C@H]2C(N)=O)sc1-c1ccnc(C(C)(C)C(F)(F)F)c1 [Alpelisib] + CS(=O)(=O)CCNCc1ccc(-c2ccc3ncnc(Nc4ccc(OCc5cccc(F)c5)c(Cl)c4)c3c2)o1 [Lapatinib] (partner 2 µM)
In short: as §1

[3] = compound: Cc1nc(NC(=O)N2CCC[C@H]2C(N)=O)sc1-c1ccnc(C(C)(C)C(F)(F)F)c1 [Alpelisib] + Cc1nc(Nc2ncc(C(=O)Nc3c(C)cccc3Cl)s2)cc(N2CCN(CCO)CC2)n1 [Dasatinib] (partner 0.075 µM)
In short: as §1

[4] = compound: Cc1nc(NC(=O)N2CCC[C@H]2C(N)=O)sc1-c1ccnc(C(C)(C)C(F)(F)F)c1 [Alpelisib] + O=C(CCCCCCC(=O)Nc1ccccc1)NO [Vorinostat] (partner 1 µM)
In short: as §1

Cell Line	relative viability ([1]; first compound 0.01 µM)	relative viability ([1]; first compound 0.03162 µM)	relative viability ([1]; first compound 0.1 µM)	relative viability ([1]; first compound 0.3162 µM)	relative viability ([1]; first compound 1 µM)	relative viability ([2]; first compound 0.04 µM)	relative viability ([2]; first compound 0.1265 µM)	relative viability ([2]; first compound 0.4 µM)	relative viability ([2]; first compound 1.265 µM)	relative viability ([2]; first compound 4 µM)	relative viability ([3]; first compound 0.04 µM)	relative viability ([3]; first compound 0.1265 µM)	relative viability ([3]; first compound 0.4 µM)	relative viability ([3]; first compound 1.265 µM)	relative viability ([3]; first compound 4 µM)	relative viability ([4]; first compound 0.04 µM)	relative viability ([4]; first compound 0.1265 µM)	relative viability ([4]; first compound 0.4 µM)	relative viability ([4]; first compound 1.265 µM)	relative viability ([4]; first compound 4 µM)
NCI-H1650	1.42	1.21	1.19	1.25	0.797	0.718	0.738	0.806	0.62	0.794	0.316	0.309	0.322	0.257	0.271	0.585	0.599	0.756	0.491	0.368
NCI-H1651	0.732	0.677	0.69	0.653	0.491	0.773	0.803	0.943	0.646	0.618	0.357	0.463	0.445	0.412	0.293	0.534	0.619	0.552	0.517	0.504
NCI-H1666	1	0.942	0.922	0.795	0.783	0.668	0.381	0.682	0.475	0.356	0.851	0.764	0.792	0.698	0.666	0.978	1.1	1.07	0.876	0.727
NCI-H1734	0.87	0.92	0.799	0.726	0.477	1.09	0.989	1.11	0.771	0.373	0.42	–	0.394	0.244	0.208	0.726	0.686	0.822	0.642	0.375
NCI-H1755	0.859	0.92	0.835	0.809	0.522	1.03	0.962	1.11	0.911	0.851	0.382	0.415	0.418	0.327	0.228	0.774	0.71	0.873	0.605	0.632
NCI-H1793	0.574	0.557	0.539	0.345	0.166	0.647	0.642	0.637	0.513	0.613	0.299	0.379	0.525	0.356	0.351	0.62	0.977	0.839	0.598	0.325
NCI-H1915	1.23	1.14	1.12	1.03	0.582	1.01	0.979	0.957	0.949	0.944	0.29	0.28	0.313	0.268	0.276	0.543	0.543	0.577	0.448	0.509
NCI-H1944	0.835	0.918	0.884	0.73	0.394	0.815	1.04	0.763	0.621	0.451	0.208	0.217	0.203	0.163	0.144	0.538	0.554	0.597	0.399	0.326
NCI-H1975	1	0.954	0.783	0.841	0.635	0.874	0.862	0.889	0.619	0.483	0.322	0.309	0.329	0.176	0.112	0.696	0.674	0.61	0.426	0.402
NCI-H1993	0.749	0.633	0.549	0.487	0.575	0.775	0.676	0.913	0.774	0.711	0.532	0.469	0.508	0.454	0.569	0.751	0.815	0.909	0.596	0.64
NCI-H2009	1.25	1.14	1.18	1.11	0.801	0.99	1	1.11	0.89	0.889	0.309	0.281	0.353	0.223	0.198	0.675	0.711	0.784	0.669	0.658
NCI-H2023	0.964	0.925	0.785	0.765	0.461	0.717	0.617	0.312	0.58	0.495	0.484	0.537	0.483	0.244	0.304	0.595	0.634	0.61	0.394	0.348
NCI-H2085	1.09	1.01	0.895	1.05	0.591	0.742	0.624	0.839	0.635	0.623	0.275	0.225	0.265	0.263	0.215	0.801	0.686	0.888	0.754	0.633
